Source: the supplement of paper PMC11451515

Tested on: P12-Ichikawa
Assay: cell viability relative to DMSO control; higher = less cytotoxic
Conditions: 48 h
Summary of the method: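 NOMO1, SEM and P12-Ichikawa leukemia cells spent at least four passages adapting to each medium before use. They were seeded at 500 cells/well (NOMO1, SEM) or 1000 cells/well (P12-Ichikawa) in 5 μl in 1536-well plates and pin-dosed with library compounds in DMSO at 11 threefold steps from 47 μM down to 0.79 nM. After 48 h at 37°C, CellTiter-Glo One luminescence was read. Viability is reported as a percentage of the DMSO wells on each plate, with cell-free wells as background.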

[1] = HPLM + 10% dialyzed FBS, 0.000781 µM
[2] = HPLM + 10% dialyzed FBS, 0.00234 µM
[3] = HPLM + 10% dialyzed FBS, 0.00702 µM
[4] = HPLM + 10% dialyzed FBS, 0.0211 µM
[5] = HPLM + 10% dialyzed FBS, 0.0632 µM
[6] = HPLM + 10% dialyzed FBS, 0.19 µM
[7] = HPLM + 10% dialyzed FBS, 0.569 µM
[8] = HPLM + 10% dialyzed FBS, 1.71 µM
[9] = HPLM + 10% dialyzed FBS, 5.12 µM
[10] = HPLM + 10% dialyzed FBS, 15.4 µM
[11] = HPLM + 10% dialyzed FBS, 46.1 µM
[12] = RPMI 5 mM glucose + 10% FBS, 0.000781 µM
[13] = RPMI 5 mM glucose + 10% FBS, 0.00234 µM
[14] = RPMI 5 mM glucose + 10% FBS, 0.00702 µM
[15] = RPMI 5 mM glucose + 10% FBS, 0.0211 µM
[16] = RPMI 5 mM glucose + 10% FBS, 0.0632 µM
[17] = RPMI 5 mM glucose + 10% FBS, 0.19 µM
[18] = RPMI 5 mM glucose + 10% FBS, 0.569 µM
[19] = RPMI 5 mM glucose + 10% FBS, 1.71 µM
[20] = RPMI 5 mM glucose + 10% FBS, 5.12 µM
[21] = RPMI 5 mM glucose + 10% FBS, 15.4 µM
[22] = RPMI 5 mM glucose + 10% FBS, 46.1 µM
[23] = RPMI 5 mM glucose + 10% dialyzed FBS, 0.000781 µM
[24] = RPMI 5 mM glucose + 10% dialyzed FBS, 0.00234 µM
[25] = RPMI 5 mM glucose + 10% dialyzed FBS, 0.00702 µM
[26] = RPMI 5 mM glucose + 10% dialyzed FBS, 0.0211 µM
[27] = RPMI 5 mM glucose + 10% dialyzed FBS, 0.0632 µM
[28] = RPMI 5 mM glucose + 10% dialyzed FBS, 0.19 µM
[29] = RPMI 5 mM glucose + 10% dialyzed FBS, 0.569 µM
[30] = RPMI 5 mM glucose + 10% dialyzed FBS, 1.71 µM
[31] = RPMI 5 mM glucose + 10% dialyzed FBS, 5.12 µM
[32] = RPMI 5 mM glucose + 10% dialyzed FBS, 15.4 µM
[33] = RPMI 5 mM glucose + 10% dialyzed FBS, 46.1 µM

| SMILES | cell viability [1] | cell viability [2] | cell viability [3] | cell viability [4] | cell viability [5] | cell viability [6] | cell viability [7] | cell viability [8] | cell viability [9] | cell viability [10] | cell viability [11] | cell viability [12] | cell viability [13] | cell viability [14] | cell viability [15] | cell viability [16] | cell viability [17] | cell viability [18] | cell viability [19] | cell viability [20] | cell viability [21] | cell viability [22] | cell viability [23] | cell viability [24] | cell viability [25] | cell viability [26] | cell viability [27] | cell viability [28] | cell viability [29] | cell viability [30] | cell viability [31] | cell viability [32] | cell viability [33] |
| --- | --- | --- | --- | --- | --- | --- | --- | --- | --- | --- | --- | --- | --- | --- | --- | --- | --- | --- | --- | --- | --- | --- | --- | --- | --- | --- | --- | --- | --- | --- | --- | --- | --- |
| C=CC(=O)N1CCC[C@@H](n2nc(-c3ccc(Oc4ccccc4)cc3)c3c(N)ncnc32)C1 | 127% | 123% | 120% | 121% | 114% | 112% | 111% | 91.8% | 80.7% | 76.3% | 80.5% |  |  |  |  |  |  |  |  |  |  |  |  |  |  |  |  |  |  |  |  |  |  |
| Cc1cc2c(F)c(Oc3ncnn4cc(OC[C@@H](C)O)c(C)c34)ccc2[nH]1 | 115% | 105% | 102% | 106% | 111% | 106% | 97.2% | 97.5% | 96.9% | 73.9% | 52% | 97.7% | 107% | 101% | 98.1% | 101% | 109% | 104% | 99% | 98.8% | 80.7% | 55.8% | 102% | 100% | 97.3% | 101% | 104% | 102% | 95.7% | 97.8% | 90.1% | 79.3% | 52.3% |
| C[C@@H]1[C@H](O)[C@@H](C)/C=C/C=C/C=C/C=C/C=C/C=C/C=C/[C@H](O[C@@H]2O[C@H](C)[C@@H](O)[C@H](N)[C@@H]2O)C[C@@H]2O[C@](O)(C[C@@H](O)C[C@@H](O)[C@H](O)CC[C@@H](O)C[C@@H](O)CC(=O)O[C@H]1C)C[C@H](O)[C@H]2C(=O)O | 105% | 118% | 117% | 124% | 121% | 126% | 121% | 129% | 119% | 127% | 118% | 119% | 112% | 118% | 110% | 119% | 123% | 134% | 127% | 122% | 125% | 123% | 98.6% | 113% | 119% | 110% | 130% | 116% | 123% | 124% | 124% | 115% | 124% |
| COc1ccc(C(C)=O)c(O)c1 | 100% | 106% | 115% | 109% | 109% | 114% | 117% | 102% | 107% | 24% | 31% | 115% | 115% | 106% | 120% | 128% | 117% | 114% | 112% | 116% | 22% | 30.6% | 103% | 109% | 109% | 104% | 110% | 114% | 114% | 99.9% | 110% | 25.8% | 25.4% |
